Assay results published in US20230310464A1, “USE OF C[…] THE TREATMENT OF SEIZURES ASSOCIATED WITH RARE […] SYNDROMES RELATED TO BRAIN INJURY” (GW Research Limited, priority 2020, published 2023).
Entries after “also recorded” stand apart in the source; their conditions may differ.

System: seizures associated with hypoxic ischaemic encephalopathy (HIE) or anoxia at birth
Test: Open label, expanded-access program: seizure frequency recorded by caregivers in a diary, relative to baseline
Type: in vivo, human
Set-up: reduction in tonic seizures over the treatment period / reduction in spasms over the treatment period / reduction in absence seizures over the treatment period / reduction in tonic-clonic seizures over the treatment period / reduction in myoclonic seizures over the treatment period: concentration or dose not given beside the values; Seizure frequency, Tonic / Seizure frequency, Spasm / Seizure frequency, Absence / Seizure frequency, Tonic-clonic / Seizure frequency, Focal with impairment / Seizure frequency, Atonic / Seizure frequency, Focal without impairment / Seizure frequency, Focal secondary generalisation / Seizure frequency, Myoclonic: unit not given here
Method: Subjects were required to be on one or more AEDs at stable doses for a minimum of two weeks prior to baseline and to have stable vagus nerve stimulation (VNS) settings and ketogenic diet ratios for a minimum of four weeks prior to baseline.
Dose was then increased weekly by 5 mg/kg/day to a goal of 20 to 25 mg/kg/day.
Modifications were made to concomitant AEDs as per clinical indication.
Seizure frequency, intensity, and duration were recorded by caregivers in a diary during a baseline period of at least 28 days. Changes in seizure frequency relative to baseline were calculated after at least 2 weeks and at defined timepoints of treatment.
Patients may be defined as responders if they had more than 50% reduction in seizure frequency compared to baseline. The percent change in seizure frequency was calculated as follows: […]
The percent change of seizure frequency may be calculated for any time interval where seizure number has been recorded. For the purpose of this example the percent change of seizure frequency for the end of the treatment period was calculated as follows: […]

[1] = Patient 4, 48 weeks, CBD 15.0 mg/kg/day
[2] = Patient 4, 60 weeks, CBD 20.0 mg/kg/day
[3] = Patient 4, treated for 60 weeks, vs baseline
[4] = Patient 5, 2 weeks, CBD 10.0 mg/kg/day
[5] = Patient 5, 4 weeks, CBD 20.0 mg/kg/day
[6] = Patient 5, 8 weeks, CBD 25.0 mg/kg/day
[7] = Patient 5, 12 weeks, CBD 25.0 mg/kg/day
[8] = Patient 5, 16 weeks, CBD 25.0 mg/kg/day
[9] = Patient 6, 2 weeks, CBD 10.0 mg/kg/day
[10] = Patient 6, treated for 2 weeks, vs baseline
[11] = Patient 7, 2 weeks, CBD 5.0 mg/kg/day
[12] = Patient 7, 4 weeks, CBD 10.0 mg/kg/day
[13] = Patient 7, 8 weeks, CBD 20.0 mg/kg/day
[14] = Patient 7, 12 weeks, CBD 25.0 mg/kg/day
[15] = Patient 9, 2 weeks, CBD 15.0 mg/kg/day
[16] = Patient 9, 4 weeks, CBD 20.0 mg/kg/day
[17] = Patient 9, 8 weeks, CBD 25.0 mg/kg/day
[18] = Patient 9, 12 weeks, CBD 25.0 mg/kg/day
[19] = Patient 9, 16 weeks, CBD 25.0 mg/kg/day
[20] = Patient 9, 24 weeks, CBD 25.0 mg/kg/day
[21] = Patient 9, 36 weeks, CBD 25.0 mg/kg/day
[22] = Patient 9, 48 weeks, CBD 25.0 mg/kg/day
[23] = Patient 9, 60 weeks, CBD 25.0 mg/kg/day
[24] = Patient 9, 72 weeks, CBD 25.0 mg/kg/day
[25] = Patient 9, 84 weeks, CBD 25.0 mg/kg/day
[26] = Patient 9, 108 weeks, CBD 25.0 mg/kg/day
[27] = Patient 9, 132 weeks, CBD 25.0 mg/kg/day

## C=C(C)[C@@H]1CCC(C)=C[C@H]1c1c(O)cc(CCCCC)cc1O [CBD, cannabidiol]
Patient 4, 36 weeks, CBD 15.0 mg/kg/day
  Seizure frequency, Tonic-clonic: 0
[1]
  Seizure frequency, Atonic: 0
  Seizure frequency, Tonic: 0
  Seizure frequency, Tonic-clonic: 3.3
[2]
  Seizure frequency, Atonic: 4.0
  Seizure frequency, Tonic: 0
  Seizure frequency, Tonic-clonic: 19.3
[3]
  reduction in tonic seizures over the treatment period: 100%
  reduction in tonic-clonic seizures over the treatment period: 87.1%
[4]
  Seizure frequency, Focal secondary generalisation: 114.0
  Seizure frequency, Focal without impairment: 0
[5]
  Seizure frequency, Focal secondary generalisation: 106.0
  Seizure frequency, Focal without impairment: 2.0
[6]
  Seizure frequency, Focal secondary generalisation: 112.8
  Seizure frequency, Focal without impairment: 1.9
[7]
  Seizure frequency, Focal secondary generalisation: 111.0
  Seizure frequency, Focal without impairment: 2.1
[8]
  Seizure frequency, Focal secondary generalisation: 125.5
  Seizure frequency, Focal without impairment: 3.9
Patient 5, treated for 16 weeks
  reduction in seizures over the treatment period (in words): did not experience a reduction in seizures
[9]
  Seizure frequency, Spasm: 100.0
  Seizure frequency, Tonic-clonic: 10.0
[10]
  reduction in spasms over the treatment period: 53.9%
  reduction in tonic-clonic seizures over the treatment period: 28.6%
[11]
  Seizure frequency, Focal with impairment: 70.0
  Seizure frequency, Myoclonic: 58.0
  Seizure frequency, Tonic-clonic: 74.0
[12]
  Seizure frequency, Focal with impairment: 78.0
  Seizure frequency, Myoclonic: 18.0
  Seizure frequency, Tonic-clonic: 102.0
[13]
  Seizure frequency, Focal with impairment: 65.3
  Seizure frequency, Myoclonic: 65.3
  Seizure frequency, Tonic-clonic: 86.7
[14]
  Seizure frequency, Focal with impairment: 71.0
  Seizure frequency, Myoclonic: 7.0
  Seizure frequency, Tonic-clonic: 65.0
Patient 7, treated for 12 weeks, vs baseline
  reduction in myoclonic seizures over the treatment period: 30%
Patient 8, 4 weeks, CBD 5.0 mg/kg/day
  Seizure frequency, Absence: 5376.0
Patient 8, 8 weeks, CBD 5.0 mg/kg/day
  Seizure frequency, Absence: 4803.0
Patient 8, 12 weeks, CBD 10.0 mg/kg/day
  Seizure frequency, Absence: 3514.0
Patient 8, 24 weeks, CBD 15.0 mg/kg/day
  Seizure frequency, Absence: 4284.0
Patient 8, 36 weeks, CBD 20.0 mg/kg/day
  Seizure frequency, Absence: 2989.3
Patient 8, 48 weeks, CBD 25.0 mg/kg/day
  Seizure frequency, Absence: 3360.0
Patient 8, 60 weeks, CBD 25.0 mg/kg/day
  Seizure frequency, Absence: 3136.0
Patient 8, 72 weeks, CBD 25.0 mg/kg/day
  Seizure frequency, Absence: 2968.0
Patient 8, 84 weeks, CBD 25.0 mg/kg/day
  Seizure frequency, Absence: 2718.0
Patient 8, treated for 84 weeks, vs baseline
  reduction in absence seizures over the treatment period: 64%
[15]
  Seizure frequency, Myoclonic: 2.0
  Seizure frequency, Tonic: 118.0
[16]
  Seizure frequency, Myoclonic: 1.0
  Seizure frequency, Tonic: 88.0
[17]
  Seizure frequency, Myoclonic: 0
  Seizure frequency, Tonic: 48.0
[18]
  Seizure frequency, Myoclonic: 0
  Seizure frequency, Tonic: 92.0
[19]
  Seizure frequency, Myoclonic: 0
  Seizure frequency, Tonic: 90.0
[20]
  Seizure frequency, Myoclonic: 0
  Seizure frequency, Tonic: 142.4
[21]
  Seizure frequency, Myoclonic: 0
  Seizure frequency, Tonic: 53.0
[22]
  Seizure frequency, Myoclonic: 0
  Seizure frequency, Tonic: 98.0
[23]
  Seizure frequency, Myoclonic: 0
  Seizure frequency, Tonic: 95.6
[24]
  Seizure frequency, Myoclonic: 0
  Seizure frequency, Tonic: 96.0
[25]
  Seizure frequency, Myoclonic: 0
  Seizure frequency, Tonic: 99.2
[26]
  Seizure frequency, Myoclonic: 0
  Seizure frequency, Tonic: 69.0
[27]
  Seizure frequency, Myoclonic: 0
  Seizure frequency, Tonic: 76.8
Patient 10, 4 weeks, CBD 5.0 mg/kg/day
  Seizure frequency, Absence: 10.0
Patient 10, 12 weeks, CBD 10.0 mg/kg/day
  Seizure frequency, Absence: 610.0
Patient 10, 24 weeks, CBD 15.0 mg/kg/day
  Seizure frequency, Absence: 304.0
Patient 10, 36 weeks, CBD 20.0 mg/kg/day
  Seizure frequency, Absence: 2184.6
Patient 10, 48 weeks, CBD 25.0 mg/kg/day
  Seizure frequency, Absence: 1957.3
Patient 10, 60 weeks, CBD 25.0 mg/kg/day
  Seizure frequency, Absence: 1520.3
Patient 10, 72 weeks, CBD 25.0 mg/kg/day
  Seizure frequency, Absence: 1655.6
Patient 10, 84 weeks, CBD 25.0 mg/kg/day
  Seizure frequency, Absence: 1626.6
Patient 10, 96 weeks, CBD 25.0 mg/kg/day
  Seizure frequency, Absence: 1678.3
Patient 10, 120 weeks, CBD 25.0 mg/kg/day
  Seizure frequency, Absence: 1644.5
Patient 10, 132 weeks, CBD 25.0 mg/kg/day
  Seizure frequency, Absence: 1370.8
Patient 10, treated for 132 weeks, vs baseline
  reduction in absence seizures over the treatment period: 54.3%
Patient #2
  time of CBD treatment after which patient became seizure free of tonic seizures: 36 weeks
Patient #4
  time of CBD treatment after which patient became seizure free of tonic seizures: 12 weeks
Patients 2 and 4, between 12 and 36 weeks of treatment
  seizure freedom in patients with tonic seizures (in words): completely seizure free
tonic, tonic-clonic, atonic, myoclonic, absence, focal seizures with impairment and spasms, HIE or anoxia at birth
  effect on seizures / seizure frequency (in words): effective in reducing the frequency; also recorded: significantly reduce the number of seizures; also recorded: significant reduction
